{"source": "patent US20100204460A1", "about": "“NATURAL BRASSINOSTEROIDS FOR USE FOR TREATING HYPERPROLIFERATION, TREATING PROLIFERATIVE DISEASES AND REDUCING ADVERSE EFFECTS OF STEROID DYSFUNCTION IN MAMMALS, PHARMACEUTICAL COMPOSITION AND ITS USE” (priority 2007, published 2010)", "assay_type_in_all_cases": "cell-based", "key": {"[1]": {"test_system": "normal human fibroblasts (BJ)", "test": "Calcein AM cytotoxicity assay, BJ", "conditions": "BJ normal fibroblasts; exposure 72 h (b71 says 96 h); mean ± SD; read-out: IC50 assessed by Calcein AM assay of surviving cells"}, "[2]": {"test_system": "MCF-7 (estrogen receptor-α-positive) breast cancer cell line", "test": "MTT cytotoxicity test, MCF-7", "conditions": "24 h, mean ± SD, read-out: IC50 determined by MTT cytotoxicity test", "experimental": "3-(4,5-Dimethylthiazol-2-yl)-2,5-diphenyltetrazolium bromide (MTT) was from Serva Electrophoresis (Heidelberg, Germany). Monoclonal mouse anti-bromodeoxyuridine (BrdU) intibody was obtained from DakoCytomation (Glostrup, Denmark). Calcein AM was obtained from PAA Laboratories GmbH (Pasching, Austria). […] All other cells were cultured in DMEM medium (Sigma, MO, USA). All used media were supplemented with 10% heat-inactivated fetal bovine serum, 2 mmol/L L-glutamine, 1% penicillin/streptomycin. The cell lines were maintained under standard cell culture conditions at 37° C. and 5% CO2 in a humid environment. Cells were subcultured twice or three times a week using the standard trypsinization procedure (Sigma, USA).\nCell viability in this case was assessed by 3-(4,5-dimethylthiozol-2-yl)-2,5-diphenyltetrazolium bromide (MTT) to determine IC50 concentrations of studied agents as described previously. […] The cells (70% to 80% confluent) were treated with brassinosteroids for 6, 12 and 24 h in cell culture medium. Cells that were used as controls were incubated with the maximum used amount of steroid diluent DMSO only. […] The absorbance was read using an ELISA reader Labsystem Multiscan RC at 570 nm. The viability of treated cells was related to the viability of control cells that represented 100% viability. […]"}, "MCF-7 cells": {"test_system": "MCF-7 cells", "test": "Western blot of cell cycle and apoptosis related proteins, MCF-7", "conditions": "for MDM-2 expression (Western blot) / expression of apoptosis related proteins (Bcl-2 family, caspase-3 activation) (Western blot) / p21Waf1/Cip1 expression (Western blot) / p27Kip1 expression (Western blot) / p53 expression (Western blot): IC50 for 6, 12, 24 h vs untreated control; for retinoblastoma protein (Rb) expression, phosphorylated and dephosphorylated forms (Western blot): vs untreated control", "experimental": "(§1) The cells were seeded in a density 1.6×10^4 cells/cm^2 (LNCaP), 1.4×10^4 cells/cm^2 (DU-145, MDA-MB-468 and MCF-7) using culture medium in 100-mm culture Petri dishes. After reaching of 70-80% confluence, the cells were treated with tested compounds 9 in concentration IC50 that were evaluated by MTT analysis described above. DMSO was used as a vehicle for controls. After 6, 12 and 24 h treatment, the cells were washed with cold PBS and scraped in ice-cold protein extract ion buffer (50 mM HEPES, pH 7.5; 150 mM NaCl; 1 mM EDTA; 2.5 mM EGTA; 10% glycerol; 0.1% Tween 20) with protease and phosphatase inhibitors (25 μL/mL phenylmethanesulphonyl fluoride; 2.5 μL/mL leupeptin; 0.1 mM Na3VO4; 2.5 μL/mL aprotinin; 10 mM β-glycerol-phosphate; 1 mM dithiothreitol). The lysates were collected into microfuge tube and incubated on ice for 1 h. Cells were incubated 60 min at 4° C. under time by time shaking in protein extraction buffer. After centrifugation at 45 000×g for 30 min at 4° C., supernatant was collected, aliquoted, and stored at −80° C. The protein content in the lysates was measured by a Bredford assay (Bio-Rad Laboratories, Hercules, Calif., USA) according to the manufacture's protocol.\n(§2) For Western blot analysis, equal aliquots of proteins (15-30 μg/well) were loaded on 10% or 12% SDS-PAGE gels and transferred onto nitrocellulose membranes (Amersham Biosciences, Vienna, Austria) by semi-dry electrophoretic transfer. Coloured marker (Rainbow™, Amersham Biosciences, Vienna, Austria) was used as a protein molecular weight standard. The non-specific binding sites were blocked by incubating the blot with 5% (w/v) non-fat dry milk in PBS for 2 h. The blot was incubated overnight in 4° C. with appropriate primary antibody that detects the protein epitope of interest and finally washed in PBS with 0.1% Tween 20 for 1 h. The blot was incubated with the diluted secondary goat anti-mouse IgG-horseradish peroxidase conjugated antibody (dilution 1:6000, Santa Cruz Biotechnology, Santa Cruz, Calif., USA) or goat anti-rabbit IgG-horseradish peroxidase conjugated antibody (dilution 1:2000, DakoCytomation, Glostrup, Denmark) for 45 min in 4° C. The membrane was washed in PBS with 0.1% Tween 20 for 1 h. The proteins were detected using a chemiluminescence detection system (Amersham Biosciences, Vienna, Austria) according to the protocol provided by the manufacturer. Equality of loaded proteins was confirmed by Ponceau S membrane staining (Sigma, St. Louis, Mo., USA) and by detection of anti-tubulin-α or anti-mcm-7 antibodies. The experiments were repeated three times. The protein expressions in treated cells were compared to untreated controls.\n(§3) Western blot analysis was used to detect changes in apoptosis related protein expression in breast and prostate cancer cell lines. […] This decreased expression of Bid can indicate a cleavage of the protein after treatment by BRs. In DU-145 cell line, expression of pro-apoptotic proteins Bax and Bid was unchanged. […] On the other hand, caspase cleavage was not found in DU-145 cells. Poly-(ADP-ribose) polymerase (PARP) positive expression in controls of prostate cancer cell lines was observed but brassinosteroids had no effect on its expression nor on its degradation within the period 6/12/24 h (FIG. 6B)."}, "MDA-MB-468 cells": {"test_system": "MDA-MB-468 cells", "test": "Western blot of cell cycle and apoptosis related proteins, MDA-MB-468", "conditions": "for expression of apoptosis related proteins (Bcl-2 family, caspase-3 activation) (Western blot) / p21Waf1/Cip1 expression (Western blot) / p27Kip1 expression (Western blot): IC50 for 6, 12, 24 h vs untreated control; for retinoblastoma protein (Rb) expression, phosphorylated and dephosphorylated forms (Western blot): vs untreated control", "experimental": "as §1, §2, §3"}, "LNCaP cells": {"test_system": "LNCaP cells", "test": "Western blot of cell cycle and apoptosis related proteins, LNCaP", "conditions": "IC50 for 6, 12, 24 h vs untreated control", "experimental": "as §1, §2, §3"}}, "note": "“Also recorded” adds a separate entry of the source.", "data": [{"compound": "CC(C)[C@@H](C)[C@@H](O)[C@H](O)[C@@H](C)[C@H]1CC[C@H]2[C@@H]3COC(=O)[C@H]4C[C@H](O)[C@H](O)C[C@]4(C)[C@H]3CC[C@]12C", "note": "[Brassinosteroid 6, 24-Epibrassinolide]", "values": [{"measurement": "IC50", "setting": "[1]", "result": "> 50", "unit": "µM"}, {"measurement": "IC50", "setting": "[2]", "result": "60 ± 1.8", "unit": "µM"}, {"measurement": "cyclin D1 expression (Western blot)", "setting": "MCF-7 cells; 6/12/24 h vs untreated control", "result": "decreased expression of cyclin D1"}, {"measurement": "MDM-2 expression (Western blot)", "setting": "MCF-7 cells", "result": "decreased expression of MDM-2 regulator of p53 degradation after all time points"}, {"measurement": "expression of apoptosis related proteins (Bcl-2 family, caspase-3 activation) (Western blot)", "setting": "MCF-7 cells", "result": "no significant changes in expression of Bcl-2 family protein nor caspase-3 activation"}, {"measurement": "p21Waf1/Cip1 expression (Western blot)", "setting": "MCF-7 cells", "result": "unchanged"}, {"measurement": "p27Kip1 expression (Western blot)", "setting": "MCF-7 cells", "result": "decrease after 6 and 12 h"}, {"measurement": "p53 expression (Western blot)", "setting": "MCF-7 cells", "result": "after 6 h exposition to brassinosteroids 9 or 6 a slight increase"}, {"measurement": "retinoblastoma protein (Rb) expression, phosphorylated and dephosphorylated forms (Western blot)", "setting": "MCF-7 cells", "result": "decreased"}, {"measurement": "cyclin D1 expression (Western blot)", "setting": "MDA-MB-468 cells; 6/12/24 h vs untreated control", "result": "decreased expression of cyclin D1"}, {"measurement": "expression of apoptosis related proteins (Bcl-2 family, caspase-3 activation) (Western blot)", "setting": "MDA-MB-468 cells", "result": "no significant changes in expression of Bcl-2 family protein nor caspase-3 activation"}, {"measurement": "p21Waf1/Cip1 expression (Western blot)", "setting": "MDA-MB-468 cells", "result": "significantly increased after 12 and 24 h"}, {"measurement": "p27Kip1 expression (Western blot)", "setting": "MDA-MB-468 cells", "result": "decreased in all time points"}, {"measurement": "retinoblastoma protein (Rb) expression, phosphorylated and dephosphorylated forms (Western blot)", "setting": "MDA-MB-468 cells", "result": "decreased"}, {"measurement": "MDM-2 expression (Western blot)", "setting": "LNCaP cells", "result": "unchanged"}, {"measurement": "anti-apoptotic protein Bcl-2 expression (Western blot)", "setting": "LNCaP cells", "result": "decreased after treatment with 9 (6, 12 and 24 h) or 6 (6 and 24 h)"}, {"measurement": "caspase-3 cleavage / activation (Western blot)", "setting": "LNCaP cells", "result": "activation of caspase-3 after 24 h; also recorded: degradation of procaspase-3 into cleaved fragments was detected after all time points of treatment with 9 and after 24 h treatment with 6"}, {"measurement": "p21Waf1/Cip1 expression (Western blot)", "setting": "LNCaP cells", "result": "decreased expression of p21^Waf1/Cip1 after 6 and 24 h"}, {"measurement": "p27Kip1 expression (Western blot)", "setting": "LNCaP cells", "result": "decreased expression of p21^Waf1/Cip1 after 6 and 24 h treatment and p27^Kip1 protein expression after 6 and 12 h"}, {"measurement": "p53 expression (Western blot)", "setting": "LNCaP cells", "result": "decreased expression of p53 after brassinosteroids 9 or 6 treatment was found after 12 and 24 h"}]}, {"compound": "CC[C@@H](C(C)C)[C@@H](O)[C@H](O)[C@@H](C)[C@H]1CC[C@H]2[C@@H]3CC(=O)[C@H]4C[C@H](O)[C@H](O)C[C@]4(C)[C@H]3CC[C@]12C", "note": "[Brassinosteroid 9, 28-Homocastasterone]", "values": [{"measurement": "IC50", "setting": "[1]", "result": "> 50", "unit": "µM"}, {"measurement": "IC50", "setting": "[2]", "result": "40 ± 1.5", "unit": "µM"}, {"measurement": "MDM-2 expression (Western blot)", "setting": "MCF-7 cells", "result": "decreased expression of MDM-2 regulator of p53 degradation after all time points"}, {"measurement": "expression of apoptosis related proteins (Bcl-2 family, caspase-3 activation) (Western blot)", "setting": "MCF-7 cells", "result": "no significant changes in expression of Bcl-2 family protein nor caspase-3 activation"}, {"measurement": "p21Waf1/Cip1 expression (Western blot)", "setting": "MCF-7 cells", "result": "increase in p21^Waf1/Cip1 and p27^Kip1 expression after 6 h"}, {"measurement": "p27Kip1 expression (Western blot)", "setting": "MCF-7 cells", "result": "increase in p21^Waf1/Cip1 and p27^Kip1 expression after 6 h"}, {"measurement": "p53 expression (Western blot)", "setting": "MCF-7 cells", "result": "after 6 h exposition to brassinosteroids 9 or 6 a slight increase"}, {"measurement": "retinoblastoma protein (Rb) expression, phosphorylated and dephosphorylated forms (Western blot)", "setting": "MCF-7 cells", "result": "decreased"}, {"measurement": "expression of apoptosis related proteins (Bcl-2 family, caspase-3 activation) (Western blot)", "setting": "MDA-MB-468 cells", "result": "no significant changes in expression of Bcl-2 family protein nor caspase-3 activation"}, {"measurement": "p21Waf1/Cip1 expression (Western blot)", "setting": "MDA-MB-468 cells", "result": "no significant changes"}, {"measurement": "p27Kip1 expression (Western blot)", "setting": "MDA-MB-468 cells", "result": "no significant changes"}, {"measurement": "retinoblastoma protein (Rb) expression, phosphorylated and dephosphorylated forms (Western blot)", "setting": "MDA-MB-468 cells", "result": "decreased"}, {"measurement": "MDM-2 expression (Western blot)", "setting": "LNCaP cells", "result": "increased after 9 treatment (6 h)"}, {"measurement": "anti-apoptotic protein Bcl-2 expression (Western blot)", "setting": "LNCaP cells", "result": "decreased after treatment with 9 (6, 12 and 24 h); also recorded: significant decrease in the levels of anti-apoptotic Bcl-2 protein"}, {"measurement": "caspase-3 cleavage / activation (Western blot)", "setting": "LNCaP cells", "result": "induced degradation of caspase-3 into its cleaved fragments after all time points (6, 12 and 24 h); also recorded: degradation of procaspase-3 into cleaved fragments was detected after all time points"}, {"measurement": "p21Waf1/Cip1 expression (Western blot)", "setting": "LNCaP cells", "result": "decreased level of p21^Waf1/Cip1 after 12 h"}, {"measurement": "p27Kip1 expression (Western blot)", "setting": "LNCaP cells", "result": "increased level of p27^Kip1 after 24 h"}, {"measurement": "p53 expression (Western blot)", "setting": "LNCaP cells", "result": "decreased expression of p53 after brassinosteroids 9 or 6 treatment was found after 12 and 24 h"}, {"measurement": "pro-apoptotic Bax level (Western blot)", "setting": "LNCaP cells", "result": "increased level of pro-apoptotic Bax after the 9 treatment after 6 and 12 h; also recorded: increase in the pro-apoptotic Bax protein"}]}]}
